Patent US6737383B1, “Herbicidal oxadiazolidines” (priority 1999, dated 2004)

Key:
[1] = test system: bedstraw; assay: Test B pre/postemergence bedstraw; format: in vivo, Galium aparine
How it was run: (§1)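 Herbicidal effect was estimated by eye on a ten-point control scale after plants spent twelve to sixteen days in a greenhouse following soil or foliar treatment. Foliar sprays targeted plants at one to four leaves; all doses were formulated in a non-phytotoxic solvent with surfactant.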

[2] = test system: blackgrass; assay: Test B pre/postemergence blackgrass; format: in vivo, Alopecurus myosuroides
How it was run: as §1

[3] = test system: surinam grass; assay: Test B pre/postemergence surinam grass; format: in vivo, Brachiaria decumbens
How it was run: as §1

[4] = test system: cocklebur; assay: Test B pre/postemergence cocklebur; format: in vivo, Xanthium strumarium
How it was run: as §1

[5] = test system: corn; assay: Test B pre/postemergence corn; format: in vivo, Zea mays
How it was run: as §1

[6] = test system: crabgrass; assay: Test B pre/postemergence crabgrass; format: in vivo, Digitaria sanguinalis
How it was run: as §1

[7] = test system: giant foxtail; assay: Test B pre/postemergence giant foxtail; format: in vivo, Setaria faberii
How it was run: as §1

[8] = test system: morningglory; assay: Test B pre/postemergence morningglory; format: in vivo, Ipomoea hederacea
How it was run: as §1

[9] = test system: pigweed; assay: Test B pre/postemergence pigweed; format: in vivo, Amaranthus retroflexus
How it was run: as §1

[10] = test system: rape; assay: Test B pre/postemergence rape; format: in vivo, Brassica napus
How it was run: as §1

[11] = test system: soybean; assay: Test B pre/postemergence soybean; format: in vivo, Glycine max
How it was run: as §1

[12] = test system: sugar beet; assay: Test B pre/postemergence sugar beet; format: in vivo, Beta vulgaris
How it was run: as §1

[13] = test system: velvetleaf; assay: Test B pre/postemergence velvetleaf; format: in vivo, Abutilon theophrasti
How it was run: as §1

[14] = test system: wheat; assay: Test B pre/postemergence wheat; format: in vivo, Triticum aestivum
How it was run: as §1

[15] = test system: wild oat; assay: Test B pre/postemergence wild oat; format: in vivo, Avena fatua
How it was run: as §1

[16] = test system: purple nutsedge; assay: Test B pre/postemergence purple nutsedge; format: in vivo, Cyperus rotundus
How it was run: as §1

[17] = Postemergence, Rate 62 g/ha, scale of 0 to 10, 0 is no effect, 10 is complete control
[18] = Postemergence, Rate 125 g/ha, scale 0 to 10, 0 is no effect, 10 is complete control
[19] = Postemergence, Rate 500 g/ha, scale 0 to 10, 0 is no effect, 10 is complete control
[20] = Preemergence, Rate 62 g/ha, scale 0 to 10 (0 no effect, 10 complete control)
[21] = Preemergence, Rate 125 g/ha, scale 0 to 10, 0 is no effect, 10 is complete control
[22] = Preemergence, Rate 500 g/ha, scale of 0 to 10 where 0 is no effect and 10 is complete control
[23] = Rate 250 g/ha, Postemergence, scale of 0 to 10 where 0 is no effect and 10 is complete control

`CCOC(=O)C=C(Cn1c(=O)on(C(=O)N(c2ccc(Cl)cc2)C(C)C)c1=O)OCC` [Compound 549] was tested, and the “Bedstraw plant response rating” value [1, 17] was 0, the “Bedstraw plant response rating” value [1, 18] was 0 and the “Plant response rating, Bedstraw” value [1, 19] was 8. The “Bedstraw plant response rating” value [1, 20] was 0, the “Bedstraw plant response rating” value [1, 21] was 0 and the “Bedstraw plant response rating (0 to 10 scale)” value ([1]; Preemergence, Rate 250 g/ha) was 5. For the same compound, the “Bedstraw plant response rating” value [1, 22] was 5, the “Plant response rating, Bedstraw” value [1, 23] was 0 and the “Blackgrass plant response rating” value [2, 17] was 0. For the same compound, the “Blackgrass plant response rating” value [2, 18] was 0, the “Plant response rating, Blackgrass” value [2, 19] was 3 and the “Blackgrass plant response rating” value [2, 20] was 0. The “Blackgrass plant response rating” value [2, 21] was 4, the “Blackgrass plant response rating (0 to 10 scale)” value ([2]; Preemergence, Rate 250 g/ha) was 6 and the “Plant response rating, Blackgrass” value [2, 23] was 2. The “B. signalgrass plant response rating” value [3, 17] was 0, the “B. signalgrass plant response rating” value [3, 18] was 0 and the “Plant response rating, B. signalgrass” value [3, 19] was 3. For the same compound, the “B. signalgrass plant response rating” value [3, 20] was 0, the “B. signalgrass plant response rating” value [3, 21] was 0 and the “B. signalgrass plant response rating (0 to 10 scale, 0 is no effect, 10 is complete control)” value ([3]; Preemergence, Rate 250 g/ha) was 0. The “B. signalgrass plant response rating” value [3, 22] was 0, the “Plant response rating, B. signalgrass” value [3, 23] was 0 and the “Cocklebur plant response rating” value [4, 17] was 0. The “Cocklebur plant response rating” value [4, 18] was 0, the “Plant response rating, Cocklebur” value [4, 19] was 4 and the “Cocklebur plant response rating” value [4, 20] was 0. For the same compound, the “Cocklebur plant response rating” value [4, 21] was 0, the “Cocklebur plant response rating (0 to 10 scale)” value ([4]; Preemergence, Rate 250 g/ha) was 0 and the “Cocklebur plant response rating” value [4, 22] was 0. For the same compound, the “Plant response rating, Cocklebur” value [4, 23] was 0, the “Corn plant response rating” value [5, 17] was 0 and the “Corn plant response rating” value [5, 18] was 0. The “Plant response rating, Corn” value [5, 19] was 0, the “Corn plant response rating” value [5, 20] was 0 and the “Corn plant response rating” value [5, 21] was 0. For the same compound, the “Corn plant response rating (0 to 10 scale)” value ([5]; Preemergence, Rate 250 g/ha) was 0, the “Corn plant response rating” value [5, 22] was 0 and the “Plant response rating, Corn” value [5, 23] was 0. The “Crabgrass plant response rating” value [6, 17] was 2, the “Crabgrass plant response rating” value [6, 18] was 3 and the “Plant response rating, Crabgrass” value [6, 19] was 9. For the same compound, the “Crabgrass plant response rating” value [6, 20] was 3, the “Crabgrass plant response rating” value [6, 21] was 7 and the “Crabgrass plant response rating (0 to 10 scale)” value ([6]; Preemergence, Rate 250 g/ha) was 10. The “Crabgrass plant response rating” value [6, 22] was 10, the “Plant response rating, Crabgrass” value [6, 23] was 6 and the “Giant foxtail plant response rating” value [7, 17] was 2. The “Giant foxtail plant response rating” value [7, 18] was 2, the “Plant response rating, Giant foxtail” value [7, 19] was 7 and the “Giant foxtail plant response rating” value [7, 20] was 9. For the same compound, the “Giant foxtail plant response rating” value [7, 21] was 10, the “Giant foxtail plant response rating (0 to 10 scale)” value ([7]; Preemergence, Rate 250 g/ha) was 10 and the “Giant foxtail plant response rating” value [7, 22] was 10. For the same compound, the “Plant response rating, Giant foxtail” value [7, 23] was 2, the “Morningglory plant response rating” value [8, 17] was 4 and the “Morningglory plant response rating” value [8, 18] was 4. The “Plant response rating, Morningglory” value [8, 19] was 4, the “Morningglory plant response rating” value [8, 20] was 0 and the “Morningglory plant response rating” value [8, 21] was 0. For the same compound, the “Morningglory plant response rating (0 to 10 scale)” value ([8]; Preemergence, Rate 250 g/ha) was 0, the “Morningglory plant response rating” value [8, 22] was 0 and the “Plant response rating, Morningglory” value [8, 23] was 4. For the same compound, the “Redroot pigweed plant response rating” value [9, 17] was 0, the “Redroot pigweed plant response rating” value [9, 18] was 0 and the “Plant response rating, Redroot pigweed” value [9, 19] was 8. For the same compound, the “Redroot pigweed plant response rating” value [9, 20] was 6, the “Redroot pigweed plant response rating” value [9, 21] was 6 and the “Plant response rating, Redroot pigweed” value [9, 23] was 0. The “Rape plant response rating” value [10, 17] was 0, the “Rape plant response rating” value [10, 18] was 0 and the “Plant response rating, Rape” value [10, 19] was 7. The “Rape plant response rating” value [10, 20] was 0, the “Rape plant response rating” value [10, 21] was 0 and the “Rape plant response rating (0 to 10 scale)” value ([10]; Preemergence, Rate 250 g/ha) was 0. The “Rape plant response rating” value [10, 22] was 0, the “Plant response rating, Rape” value [10, 23] was 5 and the “Soybean plant response rating” value [11, 17] was 2. The “Soybean plant response rating” value [11, 18] was 2, the “Plant response rating, Soybean” value [11, 19] was 3 and the “Soybean plant response rating” value [11, 20] was 0. The “Soybean plant response rating” value [11, 21] was 0, the “Soybean plant response rating (0 to 10 scale)” value ([11]; Preemergence, Rate 250 g/ha) was 0 and the “Soybean plant response rating” value [11, 22] was 0. The “Plant response rating, Soybean” value [11, 23] was 2, the “Sugarbeets plant response rating” value [12, 17] was 0 and the “Sugarbeets plant response rating” value [12, 18] was 0. The “Plant response rating, Sugarbeets” value [12, 19] was 4, the “Sugarbeets plant response rating” value [12, 20] was 0 and the “Sugarbeets plant response rating” value [12, 21] was 0. The “Sugarbeets plant response rating (0 to 10 scale)” value ([12]; Preemergence, Rate 250 g/ha) was 0, the “Sugarbeets plant response rating” value [12, 22] was 3 and the “Plant response rating, Sugarbeets” value [12, 23] was 0. For the same compound, the “Velvetleaf plant response rating” value [13, 18] was 0, the “Plant response rating, Velvetleaf” value [13, 19] was 4 and the “Velvetleaf plant response rating” value [13, 20] was 0. For the same compound, the “Velvetleaf plant response rating” value [13, 21] was 0, the “Velvetleaf plant response rating (0 to 10 scale)” value ([13]; Preemergence, Rate 250 g/ha) was 0 and the “Velvetleaf plant response rating” value [13, 22] was 0. The “Plant response rating, Velvetleaf” value [13, 23] was 4, the “Wheat plant response rating” value [14, 17] was 0 and the “Wheat plant response rating” value [14, 18] was 0. For the same compound, the “Plant response rating, Wheat” value [14, 19] was 2, the “Wheat plant response rating” value [14, 20] was 0 and the “Wheat plant response rating” value [14, 21] was 0. For the same compound, the “Wheat plant response rating” value [14, 22] was 0, the “Plant response rating, Wheat” value [14, 23] was 0 and the “Wild oats plant response rating” value [15, 17] was 0. The “Wild oats plant response rating” value [15, 18] was 0, the “Plant response rating, Wild oats” value [15, 19] was 2 and the “Wild oats plant response rating” value [15, 20] was 0. For the same compound, the “Wild oats plant response rating” value [15, 21] was 0, the “Wild oats plant response rating (0 to 10 scale)” value ([15]; Preemergence, Rate 250 g/ha) was 0 and the “Wild oats plant response rating” value [15, 22] was 3. The “Plant response rating, Wild oats” value [15, 23] was 0, the “Nutsedge plant response rating” value [16, 18] was 0 and the “Plant response rating, Nutsedge” value [16, 19] was 0. For the same compound, the “Nutsedge plant response rating” value [16, 21] was 0, the “Nutsedge plant response rating (0 to 10 scale)” value ([16]; Preemergence, Rate 250 g/ha) was 0 and the “Nutsedge plant response rating” value [16, 22] was 0.
